For data set [1], the system named is bladder cancer cells (urothelial CSCs). Kind of data set: Sphere formation assay. Type of data set: cell-based, human. The following applies: for sphere-forming ability / sphere formation: COX2 inhibitor or EP4 antagonist alone. As for the experimental part:
Sphere formation was induced by culturing cells (2×10^4/well) in […] F12 50/50 Mix (Mediatech) supplemented with B-27 (Life Technologies), 20 ng/mL FGF-basic (Peprotech), 20 ng/mL EGF (Peprotech). Cell culture was performed in ultra-low attachment 6 well plates (Corning, Lowell, USA) for 10 days. The medium was replaced every other day. Sphere formation was evaluated using the inverted phase-contrast microscope, and single sphere with a diameter larger than 100 gm was counted using NIS-Elements Microscope Imaging Software. To redifferentiate spheres, spheres were plated in standard growth medium with 10% FBS in dishes supporting cell attachment, and incubated for 7 days. For self-renewal assay, primary spheres were collected by gentle centrifugation (5 min at 400×g), dissociated with Stempro Accutase Cell Dissociation Reagent (Life Technologies), and mechanically disrupted with a pipette. The cell suspension was sieved through 40 μm cell strainer cap filter to achieve a single-cell suspension, and then equal numbers of alive cells were plated in ultralow attachment plates to generate the second spheres. Again, spheres were counted on day 14 and digested to generate the third Spheres. All the experiments were performed in triplicate and repeated at least three times.

In the next data set the test system is YAP1. Kind of data set: Western blotting of YAP1 expression in bladder cancer cells. Type of data set: cell-based, human. Here is the method: (§1) Whole cell lysates were extracted using RIPA buffer (Thermo Scientific) supplemented with 10 μL/mL Halt™ Protease Inhibitor Cocktail Kit (Life Technologies) and 30 μL/mL Halt™ Phosphatase Inhibitor Cocktail Kit (Life Technologies). The protein concentrations were determined using a Pierce™ BCA Protein Assay Kit (Life Technologies), and the protein were separated on. NuPAGE 4-12% Bis-Tris Gel (Life Technologies) according to the manufacturer's protocol. COX2 (D5H5), NANOG (D73G4), OCT4 (D7O5Z), CD133 (A3G6K), Snail (C15D3), ZEBI (D80D3), Vimentin (D21H3), CDH2 (D4R1H), CDH1 (24E10), p-EGFR (D7A5), EGFR (D38B1), p-AKT (D9E), AKT (cat #, 9272), p-ERK (D13.14.4E), ERK (137F5), p-YAP1 (D9W2I), p-Src (cat #, 2101), Src (36D10), DNMT1 (D63A6), DNMT3A (D23G1), and DNMT3B (D7070) antibodies were obtained from Cell Signaling Technology (Danvers, Mass., USA), except for SOX2 (EPR3131; Abeam, Cambridge, USA), YAP1 (ab52771; Abeam), CD24 (cat #, AF5247-SP; R&D Systems, Minneapolis USA) and β-actin (A2228; Sigma-Aldrich). Secondary horseradish peroxidase (HRP)-conjugated antibodies were obtained from Cell Signaling Technology, and chemiluminescent detection of HRP-labeled antibodies was performed using Amersham ECL Prime Western Blotting Detection Reagent (GE Healthcare, Piscataway, USA). As loading control, β-actin was used.
Background: Immunoblotting shows a protein as a band on a membrane.

A further data set concerns SOX2. As to the kind of experiment: Western blotting / flow cytometry of SOX2 expression in bladder cancer cells. Type of data set: cell-based, human. Here is the method: as §1
For extracellular staining, cells (1×10^6/100 μL stain buffer) were incubated with PE-Vio770-conjugated anti-human CD133 (293C3; Miltenyi Biotec, Auburn, USA) or PE-conjugated anti-human CD24 antibody (cat #, 560991; BD Biosciences) for 30 min at 4° C. in dark. PE-Vio770-conjugated anti-IgG1κ Isotype (cat #, 130-098-563; Miltenyi Biotec) and PE-conjugated IgG2a, κ Isotype (cat #, 555574; BD Biosciences) were used as control for CD133 and CD24 staining, respectively. Staining for intracellular SOX2 was carried out using the BD Cytofix/Cytopem Fixation/Permeabilization Kit (BD Biosciences) according to manufacturer's protocol. The cells were incubated with Alexa Fluor 647-conjugated anti-SOX2 antibody (cat #, 560302; BD Biosciences) for 40 min at 4° C. in dark. Alexa Fluor 647-conjugated anti-IgG2a, κ Isotype (cat #, 558053; BD Biosciences) was used as control. Data were acquired on a BD FACSCalibur flow cytometer (BD Biosciences) using BD CellQuest Pro software (BD Biosciences) and analyzed with FlowJo software v10.1 (Tree Star, Ashland, USA).

The test system of the next data set is COX2. As to the kind of experiment: Western blotting of COX2 expression in bladder cancer cells. Type of data set: cell-based, human. Here is the method:
as §1

A short description of data set [2]: Body weight of treated mice. Type of data set: in vivo. The following applies: mouse, in vivo. As for the experimental part:
For therapeutic efficacy, mice were randomly assigned into experimental groups (five mice per group) when tumors reached a volume of […]. For celecoxib and/or VP treatment, celecoxib (5 mg/kg) was administered via intraperitoneal (i.p.) injection once a day (17), and VP (50 mg/kg) was administered via i.p. every other day (18). EP4 antagonist ONO-AE3-208 (10 mg/kg) was administered via i.p. once a day (19). Control was applied with same volume (10 μL per injection) of 10% dimethyl sulphoxide in 1% TWEEN 80 (Sigma-Aldrich). For GEM and CDDP (GC) treatment (i.p.), CDDP (6 mg/kg) was only applied after the first GEM (60 mg/kg) treatment on day 2, followed by three consecutive treatments of GEM on day 5, 8 and 11 (17). The next cycle was started on day 18, and the treatment was continued until tumor reached 2 cm in diameter. For erlotinib treatment, the mice were treated once a day, 6 days per week, by oral gavage with erlotinib (100 mg/kg) or control (PBS containing 0.5% methyl cellulose (Sigma-Aldrich) and 0.1% TWEEN 80) (20). Tumor size was measured at least every three days. Therapeutic efficacy was assessed using percentage change after treatment related to tumor size before treatment. […]

For another data set, the system named is DNMT 1 and 3A. As to the kind of experiment: Western blotting of DNMTs. Particulars: PGE2-treated cells. Type of data set: cell-based, human. Here is the method:
as §1

Data set [3] deals with panel of miRNAs in BFTC 905 cells. Kind of data set: Expression of a panel of miRNAs. Type of data set: cell-based, human. The following applies: addition of PGE2 to COX2 inhibitor. As for the experimental part: (§2) Total RNA from cell lines was isolated using the RNeasy Plus Mini kit (Qiagen, Valencia, USA) according to the manufacturer's protocol. Total RNA extraction from bladder tissue was performed with the QIAzol Lysis Reagent (Qiagen) followed by phenol extraction and ethanol precipitation. Total RNA was eluted in DEPC treated water and stored at −80 ° C. Total RNA extraction from urine was performed using the MirVana miRNA Isolation Kit (Ambion, Austin, USA). These total RNA were converted to cDNA using the SuperScript III First-Strand Synthesis System (Life technologies, Carlsbad, USA), which was then used as a template for Q-RT-PCR. Q-RT-PCR was performed using the Fast SYBR Green Master Mix (Thermo Fisher Scientific, Waltham, USA) on a 7900HT Fast Real-Time PCR System (Life technologies) in triplicate. Micro RNA (miRNA) extraction was performed using the MirVana miRNA Isolation Kit, and was reverse transcribed using TaqMan reverse transcription kit (Applied Biosystems, Foster City, USA) and miRNA-specific RT primers provided with TaqMan microRNA assays (Applied Biosystems). Q-RT-PCR for miRNAs was performed using the TaqMan Universal PCR Master Mix according to the manufacturer's protocol. SDS software (Applied Biosystems) was used to determine cycle threshold (Ct) values. Expression level was quantified relative to β-actin for mRNA and RNU6B for miRNA using the 2-ΔΔCt method (12).

In another data set the test system is let-7. As to the kind of experiment: let-7 expression by Q-RT-PCR. Type of data set: cell-based, human. Particulars: parental or spheroid bladder cancer cells. Here is the method:
as §2
For demethylation, cells (1×10^6/T-75 flask) were treated with […] of the demethylating agent 5-Aza-dC (Sigma) dissolved in 50% acetic acid or were mock-treated with phosphate buffered saline (PBS) including the same amount of acetic acid every 24 hours for 5 days. When combined with the histone deacetylase inhibitor TSA (Sigma), 300 nmol/L TSA was added to the medium for the final 24 hours.

The subject of data set [4] is let-7 host gene MIRLET7BHG promoter. Kind of data set: Bisulfite sequencing of let-7 host gene promoter methylation. Type of data set: cell-based, human. Particulars: 10 μM celecoxib, 2 μM PGE2, or 5 μM 5-Aza-dC for 5 days. Here is the method:
Cell pellets were digested with 1% sodium dodecyl sulfate and 50 μg/mL proteinase K (Roche, Nutley, USA) at 48° C. overnight. Isolation of genomic DNA from cell lines was performed with the phenol-chloroform extraction protocol followed by ethanol precipitation. Bisulfite treatment was conducted using an EpiTect Bisulfite K ft (QIAGEN, Valencia, USA), and was subsequently amplified via PCR using primers as shown in the following table. PCR products were purified using the QIAquick Gel Extraction kit (Qiagen), and sequenced by Genewiz DNA sequencing service (Genewiz, South Plainfield, USA). The data were analyzed using the Sequence Scanner v1.0 software (Life technologies). A methylation frequency of ≥50% of total CpG sites within the amplified region was considered “methylation-positive”. For demethylation, cells ([…]) dissolved in 50% acetic acid or were mock-treated with phosphate buffered saline (PBS) including the same amount of acetic acid every 24 hours for 5 days. When combined with the histone deacetylase inhibitor TSA (Sigma), 300 nmol/L TSA was added to the medium for the final 24 hours.

[5] abbreviates: addition of PGE2 to celecoxib treatment.
Where [6] appears, read: COX2 inhibitor or EP4 antagonist alone (FIG. 2A-B, S7).

As to `N.N.[Cl][Pt][Cl]` [cisplatin, Cisplatin], the sphere formation result in [1] (CDDP chemotherapy alone) is “increased sphere formation”. Besides, in the data set on YAP1 (CDDP chemotherapy alone), the YAP1 expression result was “overexpression”. Moreover, the SOX2 expression result in the data set on SOX2 (CDDP chemotherapy alone) is reported as “overexpression”. Also, in the data set with COX2 (CDDP chemotherapy alone), the COX2 expression entry is given as “overexpression”.

For the molecule `C=Cc1c(C)c2cc3nc(cc4[nH]c(cc5nc(cc1[nH]2)C(C)=C5CCC(=O)O)c(CCC(=O)OC)c4C)[C@@]1(C)C3=CC=C(C(=O)OC)[C@H]1C(=O)OC` [VP, 3-[(23S,24R)-14-ethenyl-5-(3-methoxy-3-oxopropyl)-22,23-bis(methoxycarbonyl)-4,10,15,24-tetramethyl-25,26,27,28-tetraazahexacyclo[16.6.1.1^3,6.1^8,11.1^13,16.0^19,24]octacosa-1,3,5,7,9,11(27),12,14,16,18(25),19,21-dodecaen-9-yl]propanoic acid], in the data set on SOX2 (VP alone), the “expression of SOX2 and its related molecules” value is “reduced expression”. The COX2 expression entry with COX2 (VP alone) is given as “induced COX2 expression in a dose-dependent manner”. Further, the body weight loss entry in data set [2] is “did not observe body weight loss”.

Turning to `CCCCC[C@H](O)/C=C/[C@H]1[C@H](O)CC(=O)[C@@H]1C/C=C\CCCC(=O)O` [PGE2, Prostaglandin E2], in data set [1] (setting [5]), the celecoxib-repressed sphere-forming ability entry was “restored”. In the data set with SOX2 (setting [5]), the “celecoxib-repressed SOX2 expression” value is “restored”. Besides, the “DNMT 1 and 3A expression” value in the data set on DNMT 1 and 3A is reported as “upregulated”. Also, in data set [3], the “expression of several miRNAs” value is given as “reduced these expression”. In the data set with let-7, the let-7 expression entry is listed as “reduced its expression”. For the same molecule, the “promoter methylation of the let-7 host gene” value in data set [4] was “Promoter methylation of the let-7 host gene was observed”.

With `Nc1ncn([C@H]2C[C@H](O)[C@@H](CO)O2)c(=O)n1` [5-Aza-dC, 5-Aza-2′-deoxycytidine], in the data set on let-7, the let-7 expression entry was “restoration of let-7 expression”. Further, in data set [4], the “promoter methylation of the let-7 host gene” value is reported as “demethylated”.

Take `CC(C)(C)n1nc(-c2ccc(Cl)cc2)c2c(N)ncnc21` [Src inhibitor, PP2]: the “COX2 inhibitor-induced YAP1 expression” value in the data set with YAP1 (treatment with the Src inhibitor (FIG. S8H)) is “downregulated”.

As to “EGF: Recombinant human epidermal growth factor”, the YAP1 expression result in the data set with YAP1 (EGF-stimulated EGFR signaling) is reported as “increased”. In addition, the SOX2 expression result in the data set with SOX2 (EGF-stimulated EGFR signaling) is “increased”.

Consider `CCc1cccc2c3c([nH]c12)C(CC)(CC(=O)O)OCC3` (stereo not shown) [etodolac, Etodolac], for which, in data set [1], the “sphere-forming ability / sphere formation” value is on record as “dramatic reduction”. Besides, the SOX2 expression result with SOX2 (setting [6]) is listed as “dramatic reduction”.

Take `CC(C(=O)Nc1cc(C#N)ccc1CCCC(=O)O)c1ccc(F)c2ccccc12` (stereo not shown) [EP4-specific antagonist, ONO-AE3-208]: the “sphere-forming ability / sphere formation” value in data set [1] was “dramatic reduction”. Besides, in the data set with SOX2 (setting [6]), the SOX2 expression result is listed as “dramatic reduction”.

(Values after patent US20220184037A1, “PHARMACEUTICAL AGENTS TARGETING CANCER STEM CELLS” (THE JOHNS HOPKINS UNIVERSITY, priority 2020, published 2022).)
